Assay results: ChEMBL document CHEMBL4616653, “Naphthacemycins from a Streptomyces sp. as Protein-Tyrosine Phosphatase Inhibitors” (J Nat Prod, 2020)

biological target: T1, Tyrosine-protein phosphatase non-receptor type 1 (Homo sapiens, UniProt P18031); assay: Inhibition of recombinant human PTP1B expressed in Escherichia coli using pNPP as substrate preincubated for 15 mins followed by substrate addition and measured after 60 mins
T1 sequence (P18031 whole entry): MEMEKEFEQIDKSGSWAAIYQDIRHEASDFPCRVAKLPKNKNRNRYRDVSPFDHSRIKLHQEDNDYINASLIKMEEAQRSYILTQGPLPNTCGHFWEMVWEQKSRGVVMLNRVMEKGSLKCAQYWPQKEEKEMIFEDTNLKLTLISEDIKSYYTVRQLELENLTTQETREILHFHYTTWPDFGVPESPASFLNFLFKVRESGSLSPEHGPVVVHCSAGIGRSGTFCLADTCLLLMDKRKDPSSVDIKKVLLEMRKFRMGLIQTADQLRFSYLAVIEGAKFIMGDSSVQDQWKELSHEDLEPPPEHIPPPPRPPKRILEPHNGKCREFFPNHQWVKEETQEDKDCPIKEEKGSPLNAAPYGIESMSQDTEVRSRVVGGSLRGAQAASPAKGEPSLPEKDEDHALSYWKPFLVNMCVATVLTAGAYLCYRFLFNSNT

| SMILES | IC50 |
| --- | --- |
| COc1cc(O)c(Cl)c(C)c1-c1cc(O)c(Cl)c2cc3c(c(O)c12)C(=O)c1c(O)c(Cl)c(O)c(Cl)c1C3(C)C | 2810 nM |
| COc1cc(O)c(Cl)c(C)c1-c1cc(O)cc2cc3c(c(O)c12)C(=O)c1c(cc(O)c(Cl)c1O)C3(C)C | 2700 nM |
| COc1cc(O)c(Cl)c(C)c1-c1cc(O)c(Cl)c2cc3c(c(O)c12)C(=O)c1c(cc(O)c(Cl)c1O)C3(C)C | 8270 nM |
| COc1cc(O)c(Cl)c(C)c1-c1cc(O)cc2cc3c(c(O)c12)C(=O)c1c(O)cc(O)cc1C3(C)C | 3380 nM |
| COc1cc(O)cc(C)c1-c1cc(O)cc2cc3c(c(O)c12)C(=O)c1c(cc(O)c(Cl)c1O)C3(C)C | 7690 nM |
| COc1cc(O)c(Cl)c(C)c1-c1cc(O)c(Br)c2cc3c(c(O)c12)C(=O)c1c(O)cc(O)cc1C3(C)C | 2620 nM |
| COc1cc(O)c(Cl)c(C)c1-c1cc(O)cc2cc3c(c(O)c12)C(=O)c1c(O)c(Cl)c(O)c(Cl)c1C3(C)C | 2110 nM |
| COc1c(Cl)c(O)c(Cl)c(C)c1-c1cc(O)c(Cl)c2cc3c(c(O)c12)C(=O)c1c(O)c(Cl)c(O)c(Cl)c1C3(C)C | 340 nM |
